Entries after “also recorded” stand apart in the source; their conditions may differ.
What was measured:
[1] = target: T1, wild-type human CFTR (Homo sapiens, UniProt P13569); assay: Single-channel recording of CFTR Cl- channels in excised inside-out membrane patches from C127 cells; type: biochemical
T1 construct: expressed in transfected cells

[2] = target: T1, wild-type human CFTR; assay: CFTR Cl- currents in excised inside-out membrane patches from C127 cells (time course, I-V studies); type: biochemical; details: for concentration that maximally stimulated channel activity: excised membrane patches; for effect on channel activity at positive voltages: phloxine B 40 μM
Description: For electrophysiological experiments, we used mouse mammary epithelial cells (C127 cells) stably expressing wild-type human CFTR or ΔF508, the most common CF-associated mutation (11). C127 cells expressing wild-type CFTR were cultured as previously described (12). C127 cells expressing ΔF508 were cultured at 28° C., to overcome the processing defect of ΔF508 and promote bs delivery to the cell membrane (13). Cells were seeded onto glass coverslips and used within either 48 h (wild-type CFTR) or 1 week (ΔF508).
CFTR Cl^− channels were recorded in excised inside-out membrane patches using an Axopatch 200A patch-clamp amplifier (Axon Instruments Inc., Foster City, USA) and pCLAMP data acquisition and analysis software (version 6.03, Axon Instruments Inc.) as previously described (12,14). The established sign convention was used throughout; currents produced by positive charge moving from intra- to extracellular solutions (anions moving in the opposite direction) are shown as positive currents.
The pipette (extracellular) solution contained (in mM): 140 N-methyl-D-glucamine (NMDG), 140 aspartic acid, 5 CaCl2, 2 MgSO4, and 10 N-tris[hydroxymethyl]methyl-2-aminoethanesulphonic acid (Tes), pH 7.3 with Tris ([Cl^−], 10 mM). The bath (intracellular) solution contained (in mM): 140 NMDG, 3 MgCl2, 1 ethylene glycol-bis(β-aminoethylether)-N,N,N′,N′-tetraacetic acid caesium salt (CsEGTA), and 10 Tes, pH 7.3 with HCl, ([Cl^−], 147 mM; [Ca^2+]free, <10^−8 M). All experiments were conducted at 37° C.
After excision of membrane patches from C127 cells. CFTR Cl^− channels were activated by the addition of the catalytic subunit of protein kinase A (PKA; 75 nM) and ATP (1.0 mM) to the intracellular solution within 5 min of patch excision. […] PKA was maintained in the intracellular solution for the duration of experiments. Voltage was −50 mV. […] The number of channels per patch was determined from the maximum number of simultaneous channel openings observed during the course of an experiment, as previously described (12). […] To investigate whether modulation of CFTR by fluorescein derivatives was voltage dependent, we used a voltage ramp protocol. Macroscopic current-voltage (I-V) relationships were obtained. In the absence and presence of fluorescein derivatives by averaging currents generated by 15-30 ramps of voltage, each of 2 s duration; holding voltage was −50 mV. Basal currents recorded in the absence of PKA and ATP were subtracted from those recorded in the absence and presence of fluorescein derivatives to determine the effect of fluorescein derivatives on CFTR Cl^− currents,
CFTR Cl^− currents were initially recorded on digital audiotape using a digital tape recorder (Biologic Scientific Instruments, model DTR-1204; lntracel Ltd, Royston, UK) at a bandwidth of 10 kHz. On playback, records were filtered with an eight-pole Bessel filter (Frequency Devices, model 902LPF2: Scensys Ltd, Aylesbury, UK) at a corner frequency of 500 Hz and acquired using a Digidata 1200 interface (Axon Instruments Inc.) and pCLAMP at sampling rates of either 2.5 kHz (time course studies) or 5.0 kHz (single-channel studies).
In time course studies, each point is the average current for a 4 s period with data points collected continuously, no data were collected while solutions were changed. Average current (I) for a specific intervention was determined as the average of all the data points collected during the intervention. The relationship between drug concentration and CFTR inhibition was fitted to the Hill equation:
IDrug/IControl=1/{1+([Drug]/Ki)^n}, (1)
where [Drug] is the concentration of drug, IDrug/IControl is the fractional current at the indicated drug concentration relative to that in the same solution in the absence of added drug, Ki is the drug concentration causing half-maximal inhibition, and n is the slope factor (Hill coefficient). Mean data were fitted to a linear form of equation (1) using linear least-squares regression to yield Ki and n values.

[3] = target: wild-type CFTR Cl- channels (Homo sapiens, UniProt P13569); details: reported by Wang et al. (18); cited from earlier work
[4] = target: T2, KATP currents (Homo sapiens, UniProt Q09428+Q14654); details: added to the extracellular solution; de Weille et al. (10); cited from earlier work
T2 construct: host or cells: pancreatic β-cells

[5] = target: T3, endogenous CFTR Cl- channels in Type I MDCK cells (Canis lupus familiaris, UniProt Q5U820); assay: cAMP-stimulated iodide efflux from Type I MDCK cells; type: cell-based, canine
T3 construct: Type I MDCK cells are kidney epithelial cells that endogenously express the CFTR Cl^− channel; endogenous in cells; host or cells: Type I MDCK cells
Description: For iodide efflux experiments, we used Type I Mardin-Darby canine kidney (MDCK) cells. MDCK cells were cultured in MDCK media (a 1:1 mixture of Dulbecco's Modified Eagle Medium (DMEM) and Ham's F-12 nutrient medium supplemented with 10% fetal bovine serum, 100 U ml^1 penicillin, and […] ml^−streptomycin; all from Life Technologies Ltd, Paisley, UK) at 37° C. in a humidified atmosphere of 5% CO2. Cells were seeded onto 60 mm plastic culture dishes and used 72-96 h later.
Type I MDCK cells (≧90% confluent) were incubated for 1 h in a loading buffer containing (mM): 136 Nal, 3 KNO3, 2 Ca(NO3)2, 11 glucose, and 20 Hepes, adjusted to pH 7.4 with NaOH. […] The efflux buffer was changed at 1 min intervals over the duration of the experiment, which typically lasted 18 min. Four minutes after anion substitution, cells were exposed to agonists for 4 min. The amount of iodide in each 2.5 ml sample of efflux buffer was determined using an iodide-selective electrode (Russell pH Ltd. Auchtermuchty, UK). Cells were loaded and experiments performed at room temperature (23° C.).
Type I MDCK cells are kidney epithelial cells that endogenously express the CFTR Cl^− channel (20).
Nitrate was substituted for iodide in the bathing medium at t=−4 min and iodide efflux was monitored at 1 min intervals, for the duration of the experiment.

[6] = target: T4, ΔF508 CFTR (Homo sapiens, UniProt P13569, DEL508-508); assay: Single-channel recording of ΔF508 CFTR Cl- channels in excised patches from C127 cells grown at 28° C.; type: biochemical; details: 1 μM
T4 construct: expressed in transfected cells

[7] = 1 μM, ATP 0.3 mM, PKA 75 nM, -50 mV
[8] = eosin Y 100 μM, symmetrical 147 mM Cl-, ATP 1 mM

T1 sequence (P13569 whole entry): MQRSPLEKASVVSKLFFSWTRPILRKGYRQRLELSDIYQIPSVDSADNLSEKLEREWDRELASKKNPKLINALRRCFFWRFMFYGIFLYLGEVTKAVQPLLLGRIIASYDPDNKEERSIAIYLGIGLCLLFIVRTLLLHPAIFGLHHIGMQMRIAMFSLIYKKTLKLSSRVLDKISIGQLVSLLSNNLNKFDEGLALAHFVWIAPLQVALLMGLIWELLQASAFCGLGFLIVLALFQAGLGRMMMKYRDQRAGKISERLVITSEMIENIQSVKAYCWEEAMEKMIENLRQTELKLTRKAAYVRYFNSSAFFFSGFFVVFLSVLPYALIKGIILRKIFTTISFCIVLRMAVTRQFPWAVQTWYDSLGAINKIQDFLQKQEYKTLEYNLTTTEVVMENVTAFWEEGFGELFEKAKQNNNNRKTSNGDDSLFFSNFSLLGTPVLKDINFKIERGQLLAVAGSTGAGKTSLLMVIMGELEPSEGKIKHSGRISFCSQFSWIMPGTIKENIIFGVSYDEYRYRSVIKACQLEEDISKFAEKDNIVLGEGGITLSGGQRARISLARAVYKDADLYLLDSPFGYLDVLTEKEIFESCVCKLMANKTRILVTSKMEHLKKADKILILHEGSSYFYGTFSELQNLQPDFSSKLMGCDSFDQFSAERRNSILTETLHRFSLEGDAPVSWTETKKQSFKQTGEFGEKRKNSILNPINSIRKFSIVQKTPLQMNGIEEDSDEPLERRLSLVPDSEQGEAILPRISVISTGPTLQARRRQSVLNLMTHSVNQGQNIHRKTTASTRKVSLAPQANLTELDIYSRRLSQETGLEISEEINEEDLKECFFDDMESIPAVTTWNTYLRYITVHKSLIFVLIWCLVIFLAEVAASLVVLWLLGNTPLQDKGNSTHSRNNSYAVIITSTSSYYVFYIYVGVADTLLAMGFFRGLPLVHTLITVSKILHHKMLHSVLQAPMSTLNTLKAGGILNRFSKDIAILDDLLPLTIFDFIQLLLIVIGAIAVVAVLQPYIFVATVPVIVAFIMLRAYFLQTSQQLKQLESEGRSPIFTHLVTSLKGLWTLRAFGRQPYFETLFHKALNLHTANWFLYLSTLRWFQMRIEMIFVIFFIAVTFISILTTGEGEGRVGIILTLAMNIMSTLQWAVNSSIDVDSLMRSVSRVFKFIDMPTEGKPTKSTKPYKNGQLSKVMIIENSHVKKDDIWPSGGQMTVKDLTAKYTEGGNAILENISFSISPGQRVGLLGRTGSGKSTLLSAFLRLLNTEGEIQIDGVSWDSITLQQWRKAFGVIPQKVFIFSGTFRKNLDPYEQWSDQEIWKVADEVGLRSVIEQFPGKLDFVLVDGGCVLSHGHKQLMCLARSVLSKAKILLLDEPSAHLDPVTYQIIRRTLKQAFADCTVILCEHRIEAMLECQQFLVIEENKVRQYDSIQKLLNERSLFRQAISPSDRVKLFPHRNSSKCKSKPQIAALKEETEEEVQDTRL
T4 sequence (P13569 with tags, fused parts or gaps DEL508-508): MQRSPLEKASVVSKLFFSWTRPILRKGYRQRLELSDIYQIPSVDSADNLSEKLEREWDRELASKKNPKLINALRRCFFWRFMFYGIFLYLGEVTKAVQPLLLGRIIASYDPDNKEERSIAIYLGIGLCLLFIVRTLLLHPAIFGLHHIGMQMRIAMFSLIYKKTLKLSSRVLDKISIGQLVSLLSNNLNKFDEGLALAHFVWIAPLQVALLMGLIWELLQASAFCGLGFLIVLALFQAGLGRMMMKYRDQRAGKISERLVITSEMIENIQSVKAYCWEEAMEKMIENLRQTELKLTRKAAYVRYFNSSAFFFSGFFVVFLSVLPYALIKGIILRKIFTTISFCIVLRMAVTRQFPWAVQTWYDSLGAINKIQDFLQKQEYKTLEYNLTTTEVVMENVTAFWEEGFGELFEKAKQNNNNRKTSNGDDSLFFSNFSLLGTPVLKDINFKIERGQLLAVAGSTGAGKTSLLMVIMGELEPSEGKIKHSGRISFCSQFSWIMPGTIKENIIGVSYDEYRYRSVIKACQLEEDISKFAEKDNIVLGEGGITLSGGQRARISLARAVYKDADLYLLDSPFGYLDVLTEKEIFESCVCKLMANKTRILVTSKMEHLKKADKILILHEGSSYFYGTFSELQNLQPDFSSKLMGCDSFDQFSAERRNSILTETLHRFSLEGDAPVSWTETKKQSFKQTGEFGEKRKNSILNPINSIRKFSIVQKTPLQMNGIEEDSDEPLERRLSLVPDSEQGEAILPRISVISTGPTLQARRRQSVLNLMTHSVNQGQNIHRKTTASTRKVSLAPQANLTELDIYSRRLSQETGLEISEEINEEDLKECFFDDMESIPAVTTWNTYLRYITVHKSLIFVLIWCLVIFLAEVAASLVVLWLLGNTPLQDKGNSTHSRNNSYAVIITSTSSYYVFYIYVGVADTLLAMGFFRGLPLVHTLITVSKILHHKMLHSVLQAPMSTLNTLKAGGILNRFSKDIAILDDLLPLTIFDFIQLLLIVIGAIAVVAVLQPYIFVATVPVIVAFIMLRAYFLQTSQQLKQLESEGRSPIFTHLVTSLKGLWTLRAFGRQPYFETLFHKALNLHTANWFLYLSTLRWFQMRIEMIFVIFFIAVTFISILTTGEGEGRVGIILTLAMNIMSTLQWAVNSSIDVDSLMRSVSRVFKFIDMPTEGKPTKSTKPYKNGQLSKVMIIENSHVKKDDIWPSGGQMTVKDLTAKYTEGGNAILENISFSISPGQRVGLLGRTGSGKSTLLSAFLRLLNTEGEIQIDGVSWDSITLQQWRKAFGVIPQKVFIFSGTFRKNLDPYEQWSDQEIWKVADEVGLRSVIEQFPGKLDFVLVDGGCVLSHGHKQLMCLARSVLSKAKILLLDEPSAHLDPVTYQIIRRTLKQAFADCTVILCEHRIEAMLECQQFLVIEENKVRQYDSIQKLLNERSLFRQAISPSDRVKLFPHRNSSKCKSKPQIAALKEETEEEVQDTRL
T3 sequence (Q5U820 whole entry): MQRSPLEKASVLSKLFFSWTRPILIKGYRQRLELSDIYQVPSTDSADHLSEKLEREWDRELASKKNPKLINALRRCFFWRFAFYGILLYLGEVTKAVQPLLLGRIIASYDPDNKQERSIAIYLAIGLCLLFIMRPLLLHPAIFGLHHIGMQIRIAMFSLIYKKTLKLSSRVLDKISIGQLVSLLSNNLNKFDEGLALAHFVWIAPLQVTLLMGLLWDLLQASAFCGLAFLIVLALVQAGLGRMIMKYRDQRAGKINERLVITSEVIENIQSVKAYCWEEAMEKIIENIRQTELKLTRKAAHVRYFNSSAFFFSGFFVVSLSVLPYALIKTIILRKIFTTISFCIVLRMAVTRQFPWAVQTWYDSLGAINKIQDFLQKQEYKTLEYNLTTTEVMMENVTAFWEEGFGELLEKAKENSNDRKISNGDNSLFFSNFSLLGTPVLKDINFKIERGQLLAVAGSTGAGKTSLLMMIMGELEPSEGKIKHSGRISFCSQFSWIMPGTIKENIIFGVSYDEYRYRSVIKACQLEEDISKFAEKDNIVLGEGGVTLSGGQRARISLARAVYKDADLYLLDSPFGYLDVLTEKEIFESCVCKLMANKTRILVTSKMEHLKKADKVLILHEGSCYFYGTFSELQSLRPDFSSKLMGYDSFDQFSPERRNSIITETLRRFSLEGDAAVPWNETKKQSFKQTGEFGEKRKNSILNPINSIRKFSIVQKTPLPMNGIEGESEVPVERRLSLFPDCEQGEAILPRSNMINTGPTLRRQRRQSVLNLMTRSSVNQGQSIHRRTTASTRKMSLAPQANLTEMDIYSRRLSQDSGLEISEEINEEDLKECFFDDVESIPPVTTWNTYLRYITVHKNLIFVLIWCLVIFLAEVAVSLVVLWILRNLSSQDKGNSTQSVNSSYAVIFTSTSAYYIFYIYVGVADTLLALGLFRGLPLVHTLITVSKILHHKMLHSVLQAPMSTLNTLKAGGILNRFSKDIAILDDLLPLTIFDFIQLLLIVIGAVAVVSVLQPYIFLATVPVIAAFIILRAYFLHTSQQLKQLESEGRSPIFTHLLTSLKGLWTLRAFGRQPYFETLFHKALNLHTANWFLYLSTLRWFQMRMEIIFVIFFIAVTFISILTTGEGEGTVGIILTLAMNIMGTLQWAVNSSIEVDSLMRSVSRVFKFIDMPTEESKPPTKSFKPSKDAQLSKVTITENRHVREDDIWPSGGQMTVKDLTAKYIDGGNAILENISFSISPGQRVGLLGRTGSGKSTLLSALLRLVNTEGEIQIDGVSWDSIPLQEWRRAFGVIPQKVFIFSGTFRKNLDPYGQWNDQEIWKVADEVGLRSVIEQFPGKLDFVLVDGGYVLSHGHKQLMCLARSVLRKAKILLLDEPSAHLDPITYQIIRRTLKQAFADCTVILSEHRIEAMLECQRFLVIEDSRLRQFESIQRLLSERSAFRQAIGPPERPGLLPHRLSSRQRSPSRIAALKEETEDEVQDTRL
Chain of wild-type CFTR Cl- channels (P13569 whole entry): as the sequence (P13569 whole entry) above

Nc1ncnc2c1ncn2[C@@H]1O[C@H](COP(=O)(O)OP(=O)(O)O)[C@@H](O)[C@H]1O [ADP, reference compound]
Po ([1]; ADP 0.3 mM alone, ATP 0.3 mM, PKA 75 nM): 0.21±0.02 | Po as % of the control value ([1]; ADP 0.3 mM, ATP 0.3 mM, PKA 75 nM): 49±1%

Nc1ncnc2c1ncn2[C@@H]1O[C@H](COP(=O)(O)OP(=O)(O)OP(=O)(O)O)[C@@H](O)[C@H]1O [ATP, reference compound]
EC50 ([2]; PKA-phosphorylated channels, read-out: EC50 for activation of CFTR Cl- channels by intracellular ATP): 300 µM

O=C1OC2(c3cc(I)c(O)c(I)c3Oc3c2cc(I)c(O)c3I)c2c(Cl)c(Cl)c(Cl)c(Cl)c21 [bengal rose B]
effect on CFTR Cl- currents (concentration-response, FIG. 3) ([2]; -50 mV): stimulated and inhibited | concentrations that stimulated CFTR Cl- currents ([2]; ATP 0.3 mM, PKA 75 nM, -50 mV): 0.1 to 1.0 µM | concentration that maximally stimulated channel activity [2]: 1 µM | open probability (Po) [1, 7]: 0.40±0.08

O=C1OC2(c3ccccc31)c1cc(Br)c(O)c(Br)c1Oc1c2cc(Br)c(O)c1Br [eosin Y]
effect on CFTR Cl- currents (concentration-response, FIG. 3) ([2]; -50 mV): stimulated and inhibited | effect on channel activity at positive voltages [2, 8]: channel activity is stimulated | effect on channel activity at negative voltages [2, 8]: inhibits channel activity | open probability (Po) [1, 7]: 0.43±0.02

O=C1OC2(c3ccc(O)cc3Oc3cc(O)ccc32)c2ccccc21 [fluorescein]
effect on CFTR Cl- currents (concentration-response, FIG. 3) ([2]; -50 mV): only inhibited

O=c1c(-c2ccc(O)cc2)coc2cc(O)cc(O)c12 [genistein, 5,7-dihydrox-3-(4-hydroxyphenyl)-4H-1-benzopyran-4-one]
concentration that maximally stimulated wild-type CFTR Cl- channels [3]: 35 µM

O=C(O)c1c(Cl)c(Cl)c(Cl)c(Cl)c1-c1c2cc(Br)c(=O)c(Br)c-2oc2c(Br)c(O)c(Br)cc12 [phloxine B]
effect on KATP currents in pancreatic β-cells [4]: inhibits KATP currents | effect on iodide efflux in the absence of cAMP agonists ([5]; 10 μM): without effect | effect on cAMP-stimulated iodide efflux ([5]; 10 μM with cAMP agonists): enhanced both the speed and magnitude | interburst interval of ΔF508 [6]: without altering | mean burst duration of ΔF508 CFTR Cl channels [6]: dramatically prolonging | increase of the Po of ΔF508 ([6]; ATP 1.0 mM, PKA 75 nM): 1.5 fold | Ki [2]: 17 µM | reversibility of modulation of CFTR [2]: partially reversible | effect on CFTR Cl- currents (concentration-response, FIG. 3) ([2]; -50 mV): stimulated and inhibited | n (Hill coefficient) of current inhibition ([2]; -50 mV): 2 | concentrations causing concentration-dependent decrease in CFTR Cl- current ([2]; ATP 0.3 mM, PKA 75 nM, -50 mV): 20 to 50 µM | concentrations that stimulated CFTR Cl- currents ([2]; ATP 0.3 mM, PKA 75 nM, -50 mV): 1 to 5 µM | effect on the activity of CFTR Cl- channels ([2]; added to intracellular solution in the absence of either ATP or PKA): without effect | effect on channel activity at positive voltages [2, 8]: relieve channel block by phloxine B (40 μM), but do not stimulate channel activity | concentration that maximally stimulated channel activity [2]: 5 µM | open probability (Po) [1, 7]: large increase in Po | single-channel current amplitude (i) [1, 7]: small, but significant (P<0.05), reduction | interburst interval ([1]; 1 μM, single active channel): no change; also recorded: without effect | mean burst duration ([1]; 1 μM, single active channel): large increase in the duration of bursts; also recorded: significantly increased | Po in the presence of ADP ([1]; ADP 0.3 mM + phloxine B 1 μM, ATP 0.3 mM, PKA 75 nM): 0.43±0.05 | maximum Po (Pomax), Michaelis-Menten fit ([1]; in the presence of phloxine B 1 μM): 0.72

O=C1OC2(c3ccc(O)cc3Oc3cc(O)ccc32)c2c(Cl)c(Cl)c(Cl)c(Cl)c21 [tetrachlorofluorescein]
effect on CFTR Cl- currents (concentration-response, FIG. 3) ([2]; -50 mV): only inhibited

— patent US20040006127A1, “Activation of the cystic fibrosis transmembrane conductance regulator chloride channel” (priority 2000, published 2004)
